Consider nine compounds from ChEMBL document CHEMBL2074008, “Structural determinants of P-glycoprotein-mediated transport of glucocorticoids” (Pharm Res, 2003).

This data set concerns the target ATP-dependent translocase ABCB1 (Homo sapiens, UniProt P08183). Kind of data set: TP_TRANSPORTER: transepithelial transport in MDR1-expressing LLC-PK1 cells. In kind it is functional, cell-based. To be noted: pig.

Sequence of ATP-dependent translocase ABCB1 (P08183 whole entry): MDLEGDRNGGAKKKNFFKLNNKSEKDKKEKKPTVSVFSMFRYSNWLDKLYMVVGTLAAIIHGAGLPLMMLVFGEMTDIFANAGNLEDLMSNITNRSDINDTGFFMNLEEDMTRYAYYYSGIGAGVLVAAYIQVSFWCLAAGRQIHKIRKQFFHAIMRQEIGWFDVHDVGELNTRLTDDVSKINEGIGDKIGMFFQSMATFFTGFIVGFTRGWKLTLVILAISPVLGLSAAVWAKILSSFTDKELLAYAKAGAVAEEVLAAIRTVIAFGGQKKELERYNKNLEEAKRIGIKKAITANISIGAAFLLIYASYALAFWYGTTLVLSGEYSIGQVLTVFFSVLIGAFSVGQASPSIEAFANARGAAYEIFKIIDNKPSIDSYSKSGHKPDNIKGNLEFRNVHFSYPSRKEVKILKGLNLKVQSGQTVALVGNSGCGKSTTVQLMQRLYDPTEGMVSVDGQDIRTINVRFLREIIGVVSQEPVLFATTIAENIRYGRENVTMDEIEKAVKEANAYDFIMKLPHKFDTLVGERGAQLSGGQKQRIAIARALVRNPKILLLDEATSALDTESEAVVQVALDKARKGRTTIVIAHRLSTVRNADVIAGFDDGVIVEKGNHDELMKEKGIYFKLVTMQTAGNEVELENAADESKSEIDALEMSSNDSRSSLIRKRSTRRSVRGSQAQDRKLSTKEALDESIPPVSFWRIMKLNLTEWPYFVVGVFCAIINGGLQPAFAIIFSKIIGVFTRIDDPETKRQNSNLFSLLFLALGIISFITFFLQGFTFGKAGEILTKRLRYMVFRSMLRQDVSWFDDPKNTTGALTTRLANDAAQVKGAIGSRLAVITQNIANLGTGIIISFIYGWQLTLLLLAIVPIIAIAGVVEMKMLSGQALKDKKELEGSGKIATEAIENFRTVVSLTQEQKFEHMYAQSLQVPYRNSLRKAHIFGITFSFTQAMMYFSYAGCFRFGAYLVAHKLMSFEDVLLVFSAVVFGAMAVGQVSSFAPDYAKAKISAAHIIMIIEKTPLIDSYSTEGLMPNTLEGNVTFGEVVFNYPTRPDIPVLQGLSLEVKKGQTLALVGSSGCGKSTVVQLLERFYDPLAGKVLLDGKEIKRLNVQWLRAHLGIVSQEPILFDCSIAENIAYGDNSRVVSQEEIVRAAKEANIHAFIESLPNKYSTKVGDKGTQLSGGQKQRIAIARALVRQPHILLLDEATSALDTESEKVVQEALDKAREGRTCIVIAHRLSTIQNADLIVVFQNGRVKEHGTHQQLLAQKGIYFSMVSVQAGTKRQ

Consider `C[C@]12CCC(=O)C=C1[C@H](O)C[C@@H]1[C@@H]2[C@@H](O)C[C@@]2(C)[C@H]1CC[C@]2(O)C(=O)CO`, for which the Activity result was “substrate [+]”.

In the case of `C[C@]12CCC(=O)C=C1[C@@H](O)C[C@@H]1[C@@H]2[C@@H](O)C[C@@]2(C)[C@H]1CC[C@]2(O)C(=O)CO`, the Activity entry is “substrate [+]”.

As for `C[C@H]1C[C@H]2[C@@H]3CCC4=CC(=O)C=C[C@]4(C)[C@@]3(F)[C@@H](O)C[C@]2(C)[C@@]1(O)C(=O)CO` [BETAMETHASONE], the Activity entry was “substrate [+]”.

With `C[C@]12CCC(=O)C=C1CC[C@@H]1[C@@H]2C(=O)C[C@@]2(C)[C@H]1CC[C@]2(O)C(=O)CO` [CORTISONE], the Activity entry is “substrate [+]”.

`C[C@@H]1C[C@H]2[C@@H]3CCC4=CC(=O)C=C[C@]4(C)[C@@]3(F)[C@@H](O)C[C@]2(C)[C@@]1(O)C(=O)CO` [DEXAMETHASONE]: the Activity entry was “substrate [+]”.

As to `C[C@]12CCC(=O)C=C1CC[C@@H]1[C@@H]2[C@@H](O)C[C@@]2(C)[C@H]1CC[C@]2(O)C(=O)CO` [HYDROCORTISONE], the Activity result is “substrate [+]”.

In the case of `C[C@H]1C[C@@H]2[C@H]([C@@H](O)C[C@@]3(C)[C@H]2CC[C@]3(O)C(=O)CO)[C@@]2(C)C=CC(=O)C=C12` [METHYLPREDNISOLONE], the Activity entry is “substrate [+]”.

As to `C[C@]12C=CC(=O)C=C1CC[C@@H]1[C@@H]2[C@@H](O)C[C@@]2(C)[C@H]1CC[C@]2(O)C(=O)CO` [PREDNISOLONE], the Activity result is “substrate [+]”.

Regarding `C[C@]12C=CC(=O)C=C1CC[C@@H]1[C@@H]2C(=O)C[C@@]2(C)[C@H]1CC[C@]2(O)C(=O)CO` [PREDNISONE], the Activity result was “substrate [+]”.
